Measured values as given in US9247741B2, “Use of macrocyclic picolinamides as fungicides” (DOW AGROSCIENCES LLC, priority 2013, dated 2016).
Read-outs that look alike come from different tables or passages of the source.

Legend:
Format in all cases: in vivo
Puccinia triticina = test: Wheat brown rust (PUCCRT) disease control on wheat seedlings; conditions: for pest or weed control at 121.5 g/ha: 121.5 g/H (low volume track spray); for pest or weed control at 100 ppm: 100 ppm (high volume)
Method: Technical grades of materials were dissolved in acetone, which were then mixed with nine volumes of water containing 110 ppm Triton X-100. The fungicide solutions were applied onto wheat seedlings using an automated booth sprayer to run-off. All sprayed plants were allowed to air dry prior to further handling. All fungicides were evaluated using the aforementioned method for their activity vs. all target diseases. Wheat leaf blotch and brown rust activity were also evaluated using track spray applications, in which case the fungicides were formulated as EC formulations, containing 0.1% Trycol 5941 in the spray solutions. Wheat plants (variety Yuma) were grown from seed in a greenhouse in 50% mineral soil/50% soil-less Metro mix until the first leaf was fully emerged, with 7-10 seedlings per pot. These plants were inoculated with an aqueous spore suspension of Septoria tritici either prior to or after fungicide treatments. After inoculation the plants were kept in 100% relative humidity (one day in a dark dew chamber followed by two to three days in a lighted dew chamber at 20° C.) to permit spores to germinate and infect the leaf. The plants were then transferred to a greenhouse set at 20° C. for disease to develop. When disease symptoms were fully expressed on the l^st leaves of untreated plants, infection levels were assessed on a scale of 0 to 100 percent disease severity. Percent disease control was calculated using the ratio of disease severity on treated plants relative to untreated plants. Evaluation of Fungicidal Activity: Wheat Brown Rust (Puccinia triticina; Synonym: Puccinia recondite f sp. tritici; Bayer code PUCCRT) Wheat plants (variety Yuma) were grown from seed in a greenhouse in 50% mineral soil/50% soil-less Metro mix until the first leaf was fully emerged, with 7-10 seedlings per pot. These plants were inoculated with an aqueous spore suspension of Puccinia triticina either prior to or after fungicide treatments. After inoculation the plants were kept in a dark dew room at 22° C. with 100% relative humidity overnight to permit spores to germinate and infect the leaf. The plants were then transferred to a greenhouse set at 24° C. for disease to develop. Fungicide formulation, application and disease assessment followed the procedures as described in the Example A.

Uncinula necator = test: Grape powdery mildew (UNCINE) disease control; conditions: Erysiphe necator, 24 h, 1 Day Protectant, read-out: UNCINE disease control rating
Method: Technical grades of materials were dissolved in acetone, which were then mixed with nine volumes of water containing 110 ppm Triton X-100. The fungicide solutions were applied onto wheat seedlings using an automated booth sprayer to run-off. All sprayed plants were allowed to air dry prior to further handling. All fungicides were evaluated using the aforementioned method for their activity vs. all target diseases. Wheat leaf blotch and brown rust activity were also evaluated using track spray applications, in which case the fungicides were formulated as EC formulations, containing 0.1% Trycol 5941 in the spray solutions. Wheat plants (variety Yuma) were grown from seed in a greenhouse in 50% mineral soil/50% soil-less Metro mix until the first leaf was fully emerged, with 7-10 seedlings per pot. These plants were inoculated with an aqueous spore suspension of Septoria tritici either prior to or after fungicide treatments. After inoculation the plants were kept in 100% relative humidity (one day in a dark dew chamber followed by two to three days in a lighted dew chamber at 20° C.) to permit spores to germinate and infect the leaf. The plants were then transferred to a greenhouse set at 20° C. for disease to develop. When disease symptoms were fully expressed on the l^st leaves of untreated plants, infection levels were assessed on a scale of 0 to 100 percent disease severity. Percent disease control was calculated using the ratio of disease severity on treated plants relative to untreated plants. Evaluation of Fungicidal Activity: Grape Powdery Mildew (Uncinula necator; Bayer Code […]) Grape seedlings (variety Carignane) were grown in soil-less Metro mix, with one plant per pot, and used in the test when approximately one month old. Plants were inoculated 24 hr after fungicide treatment by shaking spores from infected leaves over test plants. Plants were maintained in a greenhouse set at 20° C. until disease was fully developed. Fungicide formulation, application and disease assessment on the sprayed leaves followed the procedures as described in the Example A.

Alternaria solani = test: Tomato early blight (ALTESO) disease control; conditions: 24 h, 1 Day Protectant, read-out: ALTESO disease control rating
Method: Technical grades of materials were dissolved in acetone, which were then mixed with nine volumes of water containing 110 ppm Triton X-100. The fungicide solutions were applied onto wheat seedlings using an automated booth sprayer to run-off. All sprayed plants were allowed to air dry prior to further handling. All fungicides were evaluated using the aforementioned method for their activity vs. all target diseases. Wheat leaf blotch and brown rust activity were also evaluated using track spray applications, in which case the fungicides were formulated as EC formulations, containing 0.1% Trycol 5941 in the spray solutions. Wheat plants (variety Yuma) were grown from seed in a greenhouse in 50% mineral soil/50% soil-less Metro mix until the first leaf was fully emerged, with 7-10 seedlings per pot. These plants were inoculated with an aqueous spore suspension of Septoria tritici either prior to or after fungicide treatments. After inoculation the plants were kept in 100% relative humidity (one day in a dark dew chamber followed by two to three days in a lighted dew chamber at 20° C.) to permit spores to germinate and infect the leaf. The plants were then transferred to a greenhouse set at 20° C. for disease to develop. When disease symptoms were fully expressed on the l^st leaves of untreated plants, infection levels were assessed on a scale of 0 to 100 percent disease severity. Percent disease control was calculated using the ratio of disease severity on treated plants relative to untreated plants. Evaluation of Fungicidal Activity: Tomato Early Blight (Alternaria solani; Bayer Code […]) Tomato plants (variety Outdoor girl) were propagated in soil-less Metro mix, with each pot having one plant, and used when 12 to 14 days old. Test plants were inoculated with an aqueous spore suspension of Alternaria solani 24 hr after fungicide treatments. After inoculation the plants were kept in 100% relative humidity (one day in a dark dew chamber followed by two to three days in a lighted dew chamber at 20° C.) to permit spores to germinate and infect the leaf. The plants were then transferred to a growth room at 22° C. for disease to develop. Fungicide formulation, application and disease assessment on the sprayed leaves followed the procedures as described in the Example A.

[1] = test system: Magnaporthe grisea; Anamorph: Pyricularia oryzae; conditions: 1 Day Protectant, 100 ppm, rice
[2] = 24 h, 1 Day Protectant, read-out: PUCCRT 1DP disease control rating
[3] = 72 h, 3 Day Curative, read-out: PUCCRT 3DC disease control rating

Compound	pest or weed control at 121.5 g/ha (Puccinia triticina; [2]) [%]	pest or weed control at 121.5 g/ha (Puccinia triticina; [3]) [%]	pest or weed control at 100 ppm (Uncinula necator) [%]	pest or weed control at 100 ppm (Alternaria solani) [%]	PYRIOR disease control rating [1]	pest or weed control at 100 ppm (Puccinia triticina; [2]) [%]	pest or weed control at 100 ppm (Puccinia triticina; [3]) [%]
CCCO[C@H]1CCC[C@H](NC(=O)c2nccc(OC)c2OCOC(C)=O)C(=O)O[C@@H](C)[C@@H]1CCC(C)C [Compound 25, ((2-(((3S,7S,8S,9S)-8-isopentyl-9-methyl-2-oxo-7-propoxyoxonan-3-yl)carbamoyl)-4-methoxypyridin-3-yl)oxy)methyl acetate]	> 70	> 70	> 70	> 70			
CCCC[C@H]1[C@H](C)OC(=O)[C@@H](NC(=O)c2nccc(OC)c2OCOC(C)=O)CCC[C@@H]1Oc1ccccc1 [Compound 33]	> 70	> 70	> 70	> 70	A (>70)		
COc1ccnc(C(=O)N[C@H]2CCC[C@H](Oc3ccccc3)[C@@H](CCC(C)C)[C@H](C)OC2=O)c1OC(C)=O [Compound 36]	> 70	< 70	> 70	> 70			
COc1ccnc(C(=O)N[C@H]2CCC[C@H](Oc3ccccc3)[C@@H](CCC(C)C)[C@H](C)OC2=O)c1OCOC(C)=O [Compound 40]	> 70	> 70	> 70	> 70	A (>70)		
COc1ccnc(C(=O)N[C@H]2CCC[C@H](OCC3CC3)[C@@H](Cc3ccc(F)cc3)[C@H](C)OC2=O)c1OCOC(C)=O [Compound 61]	> 70	> 70	> 70	< 70	A (>70)		
CCCO[C@H]1CCC[C@H](NC(=O)c2nccc(OC)c2OC(C)=O)C(=O)O[C@@H](C)[C@@H]1Cc1ccccc1 [Compound 70]	> 70	> 70	> 70	> 70	A (>70)	> 70	> 70
CCCC[C@H]1[C@H](C)OC(=O)[C@@H](NC(=O)c2nccc(OC)c2OCOC(C)=O)CCC[C@@H]1OCC1CC1 [Compound 73]	> 70	> 70	> 70	< 70	A (>70)		
CCCO[C@H]1CCC[C@H](NC(=O)c2nccc(OC)c2OC(C)=O)C(=O)O[C@@H](C)[C@@H]1CCC(C)C [Compound 74, 2-(((3S,7S,8S,9S)-8-isopentyl-9-methyl-2-oxo-7-propoxyoxonan-3-yl)carbamoyl)-4-methoxypyridin-3-yl acetate]	> 70	> 70	> 70	> 70	A (>70)		
